In brackets after ≈: the same amount, converted by molar mass. Like-named read-outs stand apart in the source and are kept apart here.
Columns and labels:
[1] = Brain:plasma concentration ratio in healthy mouse; type: in vivo; conditions: oral 30 mg/kg once a day for 7 days, 4 h post dose on day 7, read-out: Mouse tissue distribution brain/plasma ratio
Procedure: (§1) The test methods employed to determine Wee-1 kinase inhibitory effect, Wee-1 potency in cells and kinetic solubility were the same as those taught in WO 2015/092431 (see page 350 to 358). The other test methods employed were as follows: • i. Determination of Caco-2 permeability at pH 6.5 (pH7.4 for Comparative Example 6) was carried out at Cyprotex Ltd using standard protocols and SOPs. • ii. […] Dosing was as follows: single oral dose 5 mg/kg; single intravenous dose 1 mg/kg. • iii. Determination of pharmacokinetic parameters (CUT1/2/AUC/F %) in male Sprague-Dawley rats on Comparative Example 18 was carried out at BioDuro using standard protocols and SOPs. Dosing was as follows: oral dosing 5 mg/kg; intravenous dosing 1 mg/kg • iv. […] Dosing was as follows: repeated oral dose of 30 mg/kg, once a day for 7 days. Concentrations were measured at 4 h post dose on day 7. • v. Determination of tumor:plasma concentration ratio in the tumor-bearing mouse was carried out at Axis Bioservices Ltd using standard protocols and SOPs. Dosing was as follows: single oral dose of 30 mg/kg. • vi. Determination of CYP3A4/5 time-dependent inhibition (CYP3A4/5 IC50 shift value) was carried out at Cyprotex Ltd using standard protocols and SOPs. The in-vitro test system was: pooled human liver microsomes; a 30-min preincubation step with and without NADPH was included to observe the IC50 shift. • vii. […]

[2] = Caco-2 permeability (Papp A-B); type: in vitro ADME; conditions: human
Procedure: (§2) The test methods employed to determine Wee-1 kinase inhibitory effect, Wee-1 potency in cells and kinetic solubility were the same as those taught in WO 2015/092431 (see page 350 to 358). The other test methods employed were as follows: • i. Determination of Caco-2 permeability at pH 6.5 (pH7.4 for Comparative Example 6) was carried out at Cyprotex Ltd using standard protocols and SOPs. • ii. […] Dosing was as follows: single oral dose 5 mg/kg; single intravenous dose 1 mg/kg. • iii. Determination of pharmacokinetic parameters (CUT1/2/AUC/F %) in male Sprague-Dawley rats on Comparative Example 18 was carried out at BioDuro using standard protocols and SOPs. Dosing was as follows: oral dosing 5 mg/kg; intravenous dosing 1 mg/kg • iv. […] Dosing was as follows: repeated oral dose of 30 mg/kg, once a day for 7 days. Concentrations were measured at 4 h post dose on day 7. • v. Determination of tumor:plasma concentration ratio in the tumor-bearing mouse was carried out at Axis Bioservices Ltd using standard protocols and SOPs. Dosing was as follows: single oral dose of 30 mg/kg. • vi. Determination of CYP3A4/5 time-dependent inhibition (CYP3A4/5 IC50 shift value) was carried out at Cyprotex Ltd using standard protocols and SOPs. The in-vitro test system was: pooled human liver microsomes; a 30-min preincubation step with and without NADPH was included to observe the IC50 shift. • vii. Determination of the formation of reactive metabolites was carried out at Admescope Ltd using standard protocols and SOPs. The in-vitro test system was: human hepatocytes; the duration of incubation was: 2 hours; the technique for metabolite analysis was: LC-MS/MS.

[3] = Solubility in fasted state simulated gastric fluid (FaSSGF); type: physicochemical
[4] = Chemical stability in solution; type: physicochemical; conditions: Buffer at pH 7.4 and in DMSO
[5] = Rat pharmacokinetics (CL, T1/2, AUC, F %); type: in vivo; conditions: male Sprague-Dawley rats; for clearance: single intravenous dose 1 mg/kg, plasma clearance, read-out: Rat PK CL; for AUC(0-inf): single oral dose 5 mg/kg, plasma exposure, read-out: Rat PK AUCinf; for half-life / bioavailability: plasma, intravenous 1 mg/kg; for half-life: elimination half-life, read-out: Rat PK T1/2 (converted); for bioavailability: oral 5 mg/kg, oral bioavailability, read-out: Rat PK F %
Procedure: as §2

human hepatocytes = experiment: Formation of reactive metabolites in human hepatocytes; type: in vitro ADME; conditions: 2 hours incubation, LC-MS/MS
Procedure: as §1

Kinetic solubility = type: physicochemical; conditions: kinetic from dmso stock
Procedure: as §2

[6] = Tumor:plasma concentration ratio in tumor-bearing mouse; type: in vivo; conditions: single oral dose 30 mg/kg, read-out: Mouse tissue distribution tumor/plasma ratio
Procedure: as §1

pCDC2 = experiment: Wee-1 potency in cells (pCDC2 value); type: cell-based
Wee-1 kinase = Wee-1 kinase (Homo sapiens, UniProt P30291); experiment: Wee-1 kinase inhibitory effect (Wee-1 IC50); type: biochemical; conditions: read-out: Wee1 IC50
CYP3A4/5 = CYP3A4/5 time-dependent inhibition (IC50 shift); type: in vitro ADME; conditions: pooled human liver microsomes, 30-min preincubation with and without NADPH
Procedure: as §1

[7] = pH 6.5, read-out: caco-2 Papp A-B pH 6.5

Chain of Wee-1 kinase (P30291 whole entry): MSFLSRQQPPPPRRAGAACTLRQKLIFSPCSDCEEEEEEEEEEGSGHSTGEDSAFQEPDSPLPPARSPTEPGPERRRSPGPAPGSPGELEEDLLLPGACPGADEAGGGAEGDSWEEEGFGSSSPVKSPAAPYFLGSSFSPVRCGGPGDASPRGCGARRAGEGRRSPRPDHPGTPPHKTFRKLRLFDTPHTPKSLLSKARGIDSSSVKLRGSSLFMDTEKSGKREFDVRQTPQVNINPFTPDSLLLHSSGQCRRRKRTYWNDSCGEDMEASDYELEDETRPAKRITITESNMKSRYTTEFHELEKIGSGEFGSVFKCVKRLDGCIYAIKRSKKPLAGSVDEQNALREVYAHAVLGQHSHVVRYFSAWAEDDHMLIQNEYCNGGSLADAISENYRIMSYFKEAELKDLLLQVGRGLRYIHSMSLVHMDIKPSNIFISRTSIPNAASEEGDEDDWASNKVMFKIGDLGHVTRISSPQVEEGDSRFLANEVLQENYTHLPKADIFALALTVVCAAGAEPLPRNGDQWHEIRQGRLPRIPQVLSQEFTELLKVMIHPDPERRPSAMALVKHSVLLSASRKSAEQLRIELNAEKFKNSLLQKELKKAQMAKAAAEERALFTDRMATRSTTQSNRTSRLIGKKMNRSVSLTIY

Structure (SMILES)	Kp at 4 h [1]	Papp A→B [2, 7]	solubility in fasted state simulated gastric fluid (FaSSGF) [3]	chemical stability in solution [4]	clearance [5]	AUC(0-inf) [5]	half-life [5]	bioavailability [5]	Reactive metabolite detected (human hepatocytes)	solubility kinetic (Kinetic solubility)	Kp [6]	EC50 (pCDC2)	IC50 (Wee-1 kinase)	Papp A→B ([2]; pH 7.4, read-out: caco-2 Papp A-B (pH 7.4))	CYP3A4/5 IC50 shift (CYP3A4/5)
Cc1cc(Nc2ncc3c(n2)N(C)CN(c2c(Cl)cccc2Cl)C3=O)ccc1C1CCN(C)CC1 [Example 1, 3-(2,6-dichlorophenyl)-1-methyl-7-((3-methyl-4-(1-methylpiperidin-4-yl)phenyl)amino)-2,3-dihydropyrimido[4,5-d]pyrimidin-4(1H)-one]	0.69	8.9 ×10⁻⁶ cm/s	improved solubility	improved chemical stability in solution	14 mL/min/kg	1320 ng·h/mL	4.5 h	35%	no	215 µM (≈ 110 µg/mL)	4				
Cc1cc(Nc2ncc3c(n2)N(C)CN(c2c(C)cccc2Cl)C3=O)ccc1C1CCN(C)CC1 [CE 1, 3-(2-chloro-6-methylphenyl)-1-methyl-7-((3-methyl-4-(1-methylpiperidin-4-yl)phenyl)amino)-2,3-dihydropyrimido[4,5-d]pyrimidin-4(1H)-one]										189 µM (≈ 92.8 µg/mL)		695 nM	2.8 nM		
Cc1cc(Nc2ncc3c(n2)N(C)CN(c2c(Cl)cccc2Cl)C3=O)ccc1N1CCNCC1 [CE 6]	0.16				26 mL/min/kg	1360 ng·h/mL	3.7 h	41%	yes	170 µM (≈ 84.7 µg/mL)	5.7	223 nM	2.7 nM	6.6 ×10⁻⁶ cm/s	2.3-3.0
CN1CCC(c2ccc(Nc3ncc4c(n3)N(C)CN(c3c(Cl)cccc3Cl)C4=O)cc2)CC1 [CE 95]										123 µM (≈ 61.2 µg/mL)		378 nM	7.9 nM		
Cc1cc(Nc2ncc3c(n2)N(C)CN(c2c(Cl)cccc2Cl)C3=O)ccc1C1CCNCC1 [CE 18]		0.3 ×10⁻⁶ cm/s			48 mL/min/kg	120 ng·h/mL		7%		200 µM (≈ 99.5 µg/mL)		223 nM	3.7 nM		
Cc1cc(Nc2ncc3c(n2)N(C)CN(c2c(Cl)cccc2Cl)C3=O)ccc1C1=CCN(C)CC1 [CE 178]		8.1 ×10⁻⁶ cm/s								55 µM (≈ 28 µg/mL)		371 nM	3.2 nM		
COc1cc(Nc2ncc3c(n2)N(C)CN(c2c(Cl)cccc2Cl)C3=O)ccc1C1CCN(C)CC1 [CE 183]										60 µM (≈ 31.6 µg/mL)		502 nM	3.1 nM		
CN1CCC(c2ccc(Nc3ncc4c(n3)N(C)CN(c3c(Cl)cccc3Cl)C4=O)cc2CO)CC1 [CE 165]		0.3 ×10⁻⁶ cm/s			27 mL/min/kg	397 ng·h/mL	2.1 h	8%		194 µM (≈ 102 µg/mL)		347 nM	3.1 nM		

From patent US11208413B2, “Pyrimidopyrimidinones useful as wee-1 kinase inhibitors” (ALMAC DISCOVERY LIMITED, priority 2017, dated 2021)
